Laboratory results: paper PMC5011342, “A high throughput drug screening assay to identify compounds that promote oligodendrocyte differentiation using acutely dissociated and purified oligodendrocyte precursor cells” (BMC Research Notes, 2016)
Where two headings read alike, the source gives them in different places. Non-standard residues stand in square brackets, D forms with d. Residues, ends and D or L forms follow the SMILES beside them. pGlu = O=C1CC[C@@H](C(=O)O)N1; Thz = O=C(O)[C@@H]1CSCN1

Assays:
[1] = test system: acutely dissociated and purified rat OPCs; assay: Acute OL differentiation assay (MBP expression/cell, immunofluorescent image quantification); format: cell-based
How it was run: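 This acute differentiation assay used purified rat OPCs from postnatal day 6–7 pups, seeded into PDL/laminin-coated 96-well plates in differentiation medium lacking PDGF and FGF. Compounds were applied in quadruplicate after a 1–2 h preincubation at 37 °C, 10 % CO2, with 0.1 % DMSO negative and 40 ng/ml T3 positive controls in eight wells. After fixation on DIV4, anti-MBP immunofluorescence images yielded MBP expression/cell.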

expanded OPCs = assay: cells; conditions: for viability at 0.1 µM / viability at 1 µM / viability at 10 µM: Rattus norvegicus, 72 h
How it was run: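 Toxicity screen: compounds added at 0.1, 1 and 10 µM to PDGF-AA-expanded OPCs in 96-well plates, 3-day incubation at 37 °C, 10% CO2, then alamarBlue 1:10 for 4 h with fluorescence readout. Results set screening doses of 10/2, 2/0.4 or 0.4/0.08 µM.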

[2] = read-out: 0.1 µM (% DMSO), alamarBlue viability of expanded OPCs, compound at 0.1 µM, sheet All Tox data
[3] = read-out: 1 µM (% DMSO), alamarBlue viability of expanded OPCs, compound at 1 µM, sheet All Tox data
[4] = read-out: 10 µM (% DMSO), alamarBlue viability of expanded OPCs, compound at 10 µM, sheet All Tox data
[5] = alamarBlue viability of expanded OPCs, compound at 0.1 µM, relative to DMSO control
[6] = alamarBlue viability of expanded OPCs, compound at 1 µM, relative to DMSO control
[7] = alamarBlue viability of expanded OPCs, compound at 10 µM, relative to DMSO control
[8] = Rattus norvegicus, 2 uM test compound, relative to quetiapine, sheet "All OLga data", read-out: OL differentiation, 2 uM (% Quet)
[9] = Rattus norvegicus, 10 uM test compound, relative to quetiapine, sheet "All OLga data", read-out: OL differentiation, 10 uM (% Quet)
[10] = read-out: 0.1 µM (% DMSO), alamarBlue viability, NCC library compound at 0.1 µM, sheet "All Tox data"
[11] = read-out: 1 µM (% DMSO), alamarBlue viability, NCC library compound at 1 µM, sheet "All Tox data"
[12] = read-out: 10 µM (% DMSO), alamarBlue viability, NCC library compound at 10 µM, sheet "All Tox data"
[13] = Rattus norvegicus, test compound at 2 uM, NCC library screen, sheet "All OLga data", relative to quetiapine, read-out: 2 uM (% Quet)
[14] = Rattus norvegicus, test compound at 10 uM, NCC library screen, sheet "All OLga data", relative to quetiapine, read-out: 10 uM (% Quet)
[15] = Rattus norvegicus, test compound at 2 uM, MBP expression relative to quetiapine, NCC library screen, sheet "All OLga data", read-out: 2 uM (% Quet)
[16] = Rattus norvegicus, test compound at 10 uM, MBP expression relative to quetiapine, NCC library screen, sheet "All OLga data", read-out: 10 uM (% Quet)
[17] = Rattus norvegicus, test compound at 0.4 uM, NCC library screen, sheet "All OLga data", relative to quetiapine, read-out: 0.4 uM (% Quet)

| Structure (SMILES) | viability at 0.1 µM (expanded OPCs; [2]) [%] | viability at 1 µM (expanded OPCs; [3]) [%] | viability at 10 µM (expanded OPCs; [4]) [%] | 0.1 µM (% DMSO) (expanded OPCs; [5]) | 1 µM (% DMSO) (expanded OPCs; [6]) | 10 µM (% DMSO) (expanded OPCs; [7]) | activation at 2 µM [1, 8] [%] | activation at 10 µM [1, 9] [%] | activation at 2 µM [1, 13] [%] | further results |
| --- | --- | --- | --- | --- | --- | --- | --- | --- | --- | --- |
| Fc1ccc([C@@H]2CCNC[C@H]2COc2ccc3c(c2)OCO3)cc1 [Paroxetine] | 70.7 | 38.3 | 11.7 | 63.3 | 27.9 | 8.3 | – | – | – | activation at 0.08 µM ([1]; Rattus norvegicus, 0.08 uM test compound, relative to quetiapine, sheet "All OLga data", read-out: OL differentiation, 0.08 uM (% Quet)): 16.2%; activation at 0.4 µM ([1]; Rattus norvegicus, 0.4 uM test compound, relative to quetiapine, sheet "All OLga data", read-out: OL differentiation, 0.4 uM (% Quet)): -6.1%; activation at 0.08 µM ([1]; Rattus norvegicus, test compound at 0.08 uM, MBP expression relative to quetiapine, NCC library screen, sheet "All OLga data", read-out: 0.08 uM (% Quet)): -4.5%; activation at 0.4 µM ([1]; Rattus norvegicus, test compound at 0.4 uM, MBP expression relative to quetiapine, NCC library screen, sheet "All OLga data", read-out: 0.4 uM (% Quet)): -15.9% |
| C[C@H]1COc2c(C3(N)CC3)c(F)cc3c(=O)c(C(=O)O)cn1c23 [Pazufloxacin] | 95.3 | 98 | 104 | – | – | – | 1.9 | -11 | – | – |
| NC1=NC(=O)C(c2ccccc2)O1 (stereo not shown) [Pemoline] | 96 | 104 | 101 | – | – | – | -15.2 | -10.6 | – | – |
| Nc1nc2c(ncn2CCC(CO)CO)c(=O)[nH]1 [Penciclovir] | – | – | – | – | – | – | -3.5 | 0.01 | – | viability at 0.1 µM (expanded OPCs; [10]): 100%; viability at 1 µM (expanded OPCs; [11]): 98%; viability at 10 µM (expanded OPCs; [12]): 90.7% |
| CC(C)(S)[C@@H](N)C(=O)O [Penicillamine] | – | – | – | 86.6 | 87.9 | 92.6 | – | – | -0.01 | activation at 10 µM [1, 14]: 6% |
| CC1(C)S[C@@H]2[C@H](NC(=O)Cc3ccccc3)C(=O)N2[C@H]1C(=O)O [Penicillin G] | – | – | – | – | – | – | – | – | -9.8 | activation at 10 µM [1, 14]: 1.4%; viability at 0.1 µM (expanded OPCs; [10]): 107%; viability at 1 µM (expanded OPCs; [11]): 102%; viability at 10 µM (expanded OPCs; [12]): 114% |
| CC1(C)S[C@@H]2[C@H](NC(=O)COc3ccccc3)C(=O)N2[C@H]1C(=O)O [Penicillin V] | – | – | – | 96.1 | 96.3 | 93.4 | – | – | – | activation at 2 µM [1, 15]: 14.6%; activation at 10 µM [1, 16]: 6.4% |
| CC(=O)CCCCn1c(=O)c2c(ncn2C)n(C)c1=O [Pentoxifylline] | 107 | 101 | 98 | – | – | – | 12.2 | -23.3 | 16.8 | activation at 10 µM [1, 14]: 7.2%; viability at 0.1 µM (expanded OPCs; [10]): 92.8%; viability at 1 µM (expanded OPCs; [11]): 93.6%; viability at 10 µM (expanded OPCs; [12]): 94.9% |
| CCCN1C[C@H](CSC)C[C@@H]2c3cccc4[nH]cc(c34)C[C@H]21 [Pergolide] | – | – | – | – | – | – | – | – | -15.7 | activation at 0.4 µM [1, 17]: -8.9%; viability at 0.1 µM (expanded OPCs; [10]): 100%; viability at 1 µM (expanded OPCs; [11]): 83.6%; viability at 10 µM (expanded OPCs; [12]): 41% |
| O=C1[C@H]2CCCC[C@H]2C(=O)N1CCCCN1CCN(c2nsc3ccccc23)CC1 [Perospirone, reference compound] | 110 | 164 | 132 | – | – | – | 84.5 | 18.7 | – | EC50 ([1]; Rattus norvegicus, average EC50 for induction of OL differentiation from independent biological replicates, eight concentrations): 100 nM; hit in OL differentiation assay, MRF-TMC ([1]; ● = confirmed hit in this paper's assay): ● |
| NNCCc1ccccc1 [Phenelzine] | 78.4 | 80.2 | 93.1 | 94.0 | 95.0 | 87.1 | 18 | 18.6 | – | activation at 2 µM [1, 15]: 3.7%; activation at 10 µM [1, 16]: -4.2% |
| c1ccc2c(c1)Nc1ccccc1S2 [Phenothiazine] | – | – | – | – | – | – | – | – | -12.1 | activation at 0.4 µM [1, 17]: 4%; viability at 0.1 µM (expanded OPCs; [10]): 82.8%; viability at 1 µM (expanded OPCs; [11]): 85.1%; viability at 10 µM (expanded OPCs; [12]): 51.9% |
| CC(COc1ccccc1)N(CCCl)Cc1ccccc1 (stereo not shown) [Phenoxybenzamine] | – | – | – | 109.6 | 116.7 | 142.4 | – | – | -11 | activation at 10 µM [1, 14]: 35.4% |
| NC(=O)OCCCc1ccccc1 [Phenprobamate] | 96 | 95.1 | 92.7 | – | – | – | 26.9 | 12.1 | – | – |
| Cc1ccc(N(CC2=NCCN2)c2cccc(O)c2)cc1 [Phentolamine] | – | – | – | 93.8 | 88.6 | 62.0 | – | – | – | activation at 2 µM [1, 15]: -17.9%; activation at 10 µM [1, 16]: -82.7% |
| O=C1NC(=O)C(c2ccccc2)(c2ccccc2)N1 [Phenytoin] | – | – | – | 88.8 | 86.9 | 83.9 | – | – | – | activation at 2 µM [1, 15]: -25.2%; activation at 10 µM [1, 16]: -26.2% |
| CC1=C(C/C=C(\C)CCC[C@H](C)CCC[C@H](C)CCCC(C)C)C(=O)c2ccccc2C1=O [Phylloquinone] | – | – | – | – | – | – | – | – | – | 2 uM (% Quet) ([1]; test compound at 2 uM, NCC library screen, sheet "All OLga data", relative to quetiapine): 17.4 % Quet; 10 uM (% Quet) ([1]; test compound at 10 uM, NCC library screen, sheet "All OLga data", relative to quetiapine): -25.4 % Quet; 0.1 µM (% DMSO) (expanded OPCs): 96.6 % DMSO; 1 µM (% DMSO) (expanded OPCs): 89.8 % DMSO; 10 µM (% DMSO) (expanded OPCs): 87.4 % DMSO |
| CNC(=O)Oc1ccc2c(c1)[C@]1(C)CCN(C)[C@@H]1N2C [Physostigmine] | 105 | 96.7 | 78 | – | – | – | -4.5 | 0.12 | – | – |
| CC(C)(O)[C@@H]1[C@H]2OC(=O)[C@@H]1[C@]1(O)C[C@H]3O[C@]34C(=O)O[C@H]2[C@]14C [Picrotin] | 84.8 | 84.6 | 85.6 | – | – | – | 6.5 | 5.9 | – | – |
| O=C1CC[C@@H](C(=O)N2CSC[C@H]2C(=O)O)N1 [Pidotimod] ([pGlu]-[Thz]-OH) | 96.9 | 105 | 104 | – | – | – | 7.5 | -1.8 | – | – |
| CC[C@@H]1C(=O)OC[C@@H]1Cc1cncn1C [Pilocarpine] | 90.2 | 101 | 90.1 | – | – | – | 0.3 | 6.6 | – | – |
| CC(N/C(=N\C#N)Nc1ccncc1)C(C)(C)C (stereo not shown) [Pinacidil] | – | – | – | – | – | – | – | – | -0.57 | activation at 10 µM [1, 14]: 26.1%; viability at 0.1 µM (expanded OPCs; [10]): 90.8%; viability at 1 µM (expanded OPCs; [11]): 98.8%; viability at 10 µM (expanded OPCs; [12]): 93.6% |
| CC(C)NCC(O)COc1cccc2[nH]ccc12 (stereo not shown) [Pindolol] | – | – | – | 88.9 | 89.4 | 86.5 | – | – | -2.9 | activation at 10 µM [1, 14]: -35.6% |
| CCc1ccc(CCOc2ccc(CC3SC(=O)NC3=O)cc2)nc1 (stereo not shown) [Pioglitazone] | 96.9 | 120 | 164 | – | – | – | 13.3 | 55.6 | – | – |
| CCN1CCN(C(=O)N[C@@H](C(=O)N[C@@H]2C(=O)N3[C@@H]2SC(C)(C)[C@@H]3C(=O)O)c2ccccc2)C(=O)C1=O [Piperacillin] | – | – | – | 89.0 | 88.3 | 88.0 | – | – | 2 | activation at 10 µM [1, 14]: -7.9% |
| Cc1nc2ccccn2c(=O)c1CCN1CCC(C(=O)c2ccc(F)cc2)CC1 [Pirenperone] | – | – | – | – | – | – | 31.6 | 62.7 | – | viability at 0.1 µM (expanded OPCs; [10]): 102%; viability at 1 µM (expanded OPCs; [11]): 92.1%; viability at 10 µM (expanded OPCs; [12]): 83% |
| c1cnc(N2CCN(Cc3ccc4c(c3)OCO4)CC2)nc1 [Piribedil] | 88.5 | 100 | 103 | – | – | – | 23.4 | 29.9 | – | – |
| CN1C(C(=O)Nc2ccccn2)=C(O)c2ccccc2S1(=O)=O [Piroxicam] | – | – | – | – | – | – | – | – | 12.1 | activation at 10 µM [1, 14]: -2.1%; viability at 0.1 µM (expanded OPCs; [10]): 91.3%; viability at 1 µM (expanded OPCs; [11]): 88.3%; viability at 10 µM (expanded OPCs; [12]): 87.1% |
